Drawing on article PMC9448386, “Discovery of novel conjugates of quinoline and thiazolidinone urea as potential anti-colorectal cancer agent” (Journal of Enzyme Inhibition and Medicinal Chemistry, 2022), this text covers IC50 for 12 compounds.

One data set concerns COLO 205 cells. The experiment in a line: MTT assay, cytotoxic activity against COLO 205. It is filed as cell-based. Conditions: MTT, average of three separate determinations, SD shown. An excerpt: (§1) Taking lead compound BC2021-104511-15i, Fruquintinib and Regorafenib as positive controls, the cytotoxic activity against HT-29, HCT-116, COLO-205 and FHC cell lines by MTT assay. Detailed operation could be found in our previous study.

Another data set concerns HT-29 cells. As to the kind of experiment: MTT assay, cytotoxic activity against HT-29. Conditions: SD shown. Type of data set: cell-based, human.
Text: as §1
On the technique in general: Formazan colour is commonly taken as a measure of viable cells.

In the next data set the test system is HCT-116 cells. As to the kind of experiment: MTT assay, cytotoxic activity against HCT-116. Conditions: Homo sapiens, average of three separate determinations, SD shown. Type of data set: cell-based.
Text: as §1

Another data set addresses HGFR (Homo sapiens, UniProt P08581). The experiment in a line: Mobility shift assay, HGFR kinase inhibition. Type of data set: biochemical. Conditions: mean of two independent experiments. How it is done: (§2) Kinase inhibitory activity against HGFR, MST1R, ABL, PDGFRβ, AXL, FLT3, RET, c-Src, and VEGFR-2 was evaluated by the mobility shift assay. Detailed operation could be found in our previous research.

For another data set, the target named is MST1R (Homo sapiens, UniProt Q04912). The experiment in a line: Mobility shift assay, MST1R kinase inhibition. Type of data set: biochemical. Conditions: mean of two independent experiments. How it is done: as §2
The subject of a further data set is Ron (MST1R). Conditions: Figure 1; cited from earlier work.
A short description of data set [1]: MTT assay, cytotoxicity against FHC cells. It is filed as cell-based. Conditions: FHC cells (normal colorectal mucosa epithelial cells); human normal colorectal mucosa epithelial cells; average of three separate determinations. How it is done:
In order to investigate the cell selectivity index, the cytotoxicity of potent compounds against human normal colorectal mucosa epithelial cell FHC cells was determined.
as §1

Setting [2] is: Homo sapiens, HT-29, average of three separate determinations.

Bounds are passed on as bounds.

Chain of MST1R (Q04912 25-1400): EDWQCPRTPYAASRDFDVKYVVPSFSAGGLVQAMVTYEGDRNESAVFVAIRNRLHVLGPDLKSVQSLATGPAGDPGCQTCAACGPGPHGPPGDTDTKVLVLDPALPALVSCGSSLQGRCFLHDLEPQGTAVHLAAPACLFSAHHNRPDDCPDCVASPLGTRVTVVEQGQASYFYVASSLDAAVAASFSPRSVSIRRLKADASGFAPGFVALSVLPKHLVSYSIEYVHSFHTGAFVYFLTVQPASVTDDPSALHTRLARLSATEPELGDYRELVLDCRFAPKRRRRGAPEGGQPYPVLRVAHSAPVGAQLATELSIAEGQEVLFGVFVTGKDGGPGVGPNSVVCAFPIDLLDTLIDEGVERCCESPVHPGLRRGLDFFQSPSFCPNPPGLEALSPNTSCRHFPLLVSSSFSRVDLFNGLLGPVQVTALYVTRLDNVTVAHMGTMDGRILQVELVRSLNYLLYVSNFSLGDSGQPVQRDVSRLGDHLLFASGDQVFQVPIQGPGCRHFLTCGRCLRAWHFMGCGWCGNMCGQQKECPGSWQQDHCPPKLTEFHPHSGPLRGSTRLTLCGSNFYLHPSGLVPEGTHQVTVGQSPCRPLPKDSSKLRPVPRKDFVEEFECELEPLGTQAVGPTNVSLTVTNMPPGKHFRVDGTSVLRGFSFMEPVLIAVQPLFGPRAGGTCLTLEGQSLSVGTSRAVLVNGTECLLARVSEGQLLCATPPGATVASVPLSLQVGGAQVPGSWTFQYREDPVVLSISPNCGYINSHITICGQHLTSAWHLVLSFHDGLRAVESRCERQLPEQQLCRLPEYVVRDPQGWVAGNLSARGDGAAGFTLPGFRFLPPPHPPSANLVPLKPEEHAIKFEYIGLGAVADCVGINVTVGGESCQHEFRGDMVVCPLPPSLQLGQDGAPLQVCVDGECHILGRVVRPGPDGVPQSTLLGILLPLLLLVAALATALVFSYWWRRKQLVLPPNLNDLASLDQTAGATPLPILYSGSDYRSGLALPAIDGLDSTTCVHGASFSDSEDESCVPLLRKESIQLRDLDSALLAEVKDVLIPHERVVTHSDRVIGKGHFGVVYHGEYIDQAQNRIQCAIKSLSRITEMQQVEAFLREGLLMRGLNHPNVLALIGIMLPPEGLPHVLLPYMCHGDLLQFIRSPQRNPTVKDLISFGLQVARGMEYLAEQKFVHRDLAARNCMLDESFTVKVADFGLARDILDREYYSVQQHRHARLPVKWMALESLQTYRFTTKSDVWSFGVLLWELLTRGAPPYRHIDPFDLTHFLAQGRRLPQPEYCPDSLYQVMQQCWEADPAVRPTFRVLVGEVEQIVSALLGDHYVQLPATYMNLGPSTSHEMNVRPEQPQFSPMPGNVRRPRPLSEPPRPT
Chain of HGFR (P08581 25-1390): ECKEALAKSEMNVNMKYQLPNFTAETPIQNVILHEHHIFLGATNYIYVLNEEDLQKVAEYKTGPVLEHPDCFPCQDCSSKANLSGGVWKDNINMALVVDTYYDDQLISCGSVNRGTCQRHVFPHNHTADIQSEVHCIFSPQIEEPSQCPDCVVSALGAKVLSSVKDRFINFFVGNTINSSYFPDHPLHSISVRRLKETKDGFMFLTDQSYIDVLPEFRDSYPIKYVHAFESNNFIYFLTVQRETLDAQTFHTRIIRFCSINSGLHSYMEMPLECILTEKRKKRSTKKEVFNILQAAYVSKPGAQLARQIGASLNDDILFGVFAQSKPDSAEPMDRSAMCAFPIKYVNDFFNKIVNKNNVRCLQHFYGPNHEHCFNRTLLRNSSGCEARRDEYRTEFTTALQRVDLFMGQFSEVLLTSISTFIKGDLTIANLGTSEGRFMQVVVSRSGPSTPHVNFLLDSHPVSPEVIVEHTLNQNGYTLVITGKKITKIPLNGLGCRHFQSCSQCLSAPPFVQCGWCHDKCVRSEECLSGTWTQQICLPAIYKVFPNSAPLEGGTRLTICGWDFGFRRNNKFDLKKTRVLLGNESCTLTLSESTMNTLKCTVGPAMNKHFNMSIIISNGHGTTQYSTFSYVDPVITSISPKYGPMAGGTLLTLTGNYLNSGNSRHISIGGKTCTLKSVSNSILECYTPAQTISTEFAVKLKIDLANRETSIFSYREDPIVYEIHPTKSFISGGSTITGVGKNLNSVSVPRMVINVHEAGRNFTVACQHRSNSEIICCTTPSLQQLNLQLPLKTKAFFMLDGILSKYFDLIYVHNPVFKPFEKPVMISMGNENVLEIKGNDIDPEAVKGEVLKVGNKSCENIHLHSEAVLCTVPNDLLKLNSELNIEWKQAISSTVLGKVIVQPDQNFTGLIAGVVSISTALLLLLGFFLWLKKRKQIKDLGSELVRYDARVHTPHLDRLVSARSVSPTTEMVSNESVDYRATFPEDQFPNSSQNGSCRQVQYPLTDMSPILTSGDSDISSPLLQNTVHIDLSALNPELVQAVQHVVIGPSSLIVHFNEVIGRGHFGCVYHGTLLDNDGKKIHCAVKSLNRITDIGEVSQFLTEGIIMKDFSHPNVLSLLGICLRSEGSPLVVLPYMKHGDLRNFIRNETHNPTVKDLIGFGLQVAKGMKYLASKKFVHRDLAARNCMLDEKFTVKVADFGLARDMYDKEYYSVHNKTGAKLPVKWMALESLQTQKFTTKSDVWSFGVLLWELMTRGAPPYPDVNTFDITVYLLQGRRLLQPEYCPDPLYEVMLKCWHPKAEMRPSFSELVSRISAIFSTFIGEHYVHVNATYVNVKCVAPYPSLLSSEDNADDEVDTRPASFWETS

Take “2–(4-((4–(4-(3–(2-(2,6-Difluorophenyl)-4-oxotetrahydrothiophen-3-yl)ureido)-2-fluorophenoxy)-6-methoxyquinazolin-7-yl)oxy)piperidin-1-yl)acetamide [Compound 19]”: the concentration for half-maximal inhibition (IC50) – broadly, the concentration needed to halve the response being measured – with COLO 205 cells was 5300 ± 470 nM; in the data set with HT-29 cells (average of three separate determinations), 8600 ± 670 nM.
On to `CCN(CC)C(=O)N1CCC(Oc2cc3nccc(Oc4ccc(NC(=O)NN5C(=O)CSC5c5c(F)cccc5F)cc4F)c3cc2OC)CC1` (centres unmarked) [BC2021-104511-15i, 4-((4-(4-(3-(2-(2,6-difluorophenyl)-4-oxothiazolidin-3-yl)ureido)-2-fluorophenoxy)-6-methoxyquinolin-7-yl)oxy)-N,N-diethylpiperidine-1-carboxamide, reference compound], for which the IC50 in the data set with COLO 205 cells (Homo sapiens, COLO 205) worked out at 720 ± 65 nM; with HCT-116 cells it was 4800 ± 440 nM; in the data set with HT-29 cells (setting [2]), 790 ± 58 nM; at HGFR, 270 nM; on MST1R, 110 nM.
On to `CCOc1ccn(-c2ccc(F)cc2)c(=O)c1C(=O)Nc1ccc(Oc2ccnc(N)c2Cl)c(F)c1` [BMS-777607], for which, in the data set on Ron (MST1R), the IC50 was 1.8 nM.
In the case of `CNC(=O)CN1CCC(Oc2cc3nccc(Oc4ccc(NC(=O)NN5C(=O)CSC5c5c(F)cccc5F)cc4F)c3cc2OC)CC1` (centres unmarked) [Compound 10c, 2–(4-((4–(4-(3–(2-(2,6-Difluorophenyl)-4-oxothiazolidin-3-yl)ureido)-2-fluorophenoxy)-6-methoxyquinolin-7-yl)oxy)piperidin-1-yl)-N-methylacetamide], the concentration for half-maximal inhibition (IC50) is 440 ± 38 nM in the data set on COLO 205 cells (Homo sapiens, COLO 205); 5900 ± 530 nM in the data set with HCT-116 cells; 4100 ± 270 nM in the data set on HT-29 cells (setting [2]); 140 nM at HGFR; 72 nM on MST1R.
Consider `COc1cc2c(Oc3ccc(NC(=O)NN4C(=O)CSC4c4c(F)cccc4F)cc3F)ccnc2cc1OC1CCN(C(=O)CN(C)C)CC1` (centres unmarked) [Compound 10d, 1–(2-(2,6-Difluorophenyl)-4-oxothiazolidin-3-yl)-3–(4-((7-((1-(dimethylglycyl)piperidin-4-yl)oxy)-6-methoxyquinolin-4-yl)oxy)-3-fluorophenyl)urea], for which the IC50 was greater than 10000 nM in data set [1]; 4900 ± 380 nM with COLO 205 cells (Homo sapiens, COLO 205); 2400 ± 260 nM with HCT-116 cells; 2900 ± 190 nM in the data set with HT-29 cells (setting [2]); 900 nM at HGFR; 440 nM at MST1R.
Take `COc1cc2c(Oc3ccc(NC(=O)NN4C(=O)CSC4c4c(F)cccc4F)cc3F)ccnc2cc1OC1CCN(CC(=O)N2CCOCC2)CC1` (centres unmarked) [Compound 10f, 1–(2-(2,6-Difluorophenyl)-4-oxothiazolidin-3-yl)-3–(3-fluoro-4-((6-methoxy-7-((1–(2-morpholino-2-oxoethyl)piperidin-4-yl)oxy)quinolin-4-yl)oxy)phenyl)urea]: the IC50 was greater than 10000 nM in data set [1]; 420 ± 34 nM in the data set on COLO 205 cells (Homo sapiens, COLO 205); 2600 ± 270 nM in the data set on HCT-116 cells; 1900 ± 110 nM in the data set with HT-29 cells (setting [2]); 140 nM on HGFR; 78 nM at MST1R.
With `COc1cc2c(Oc3ccc(NC(=O)NN4C(=O)CSC4c4c(F)cccc4F)cc3F)ccnc2cc1OC1CCN(C(=O)COC(C)=O)CC1` (centres unmarked) [Compound 10g, 2–(4-((4–(4-(3–(2-(2,6-Difluorophenyl)-4-oxothiazolidin-3-yl)ureido)-2-fluorophenoxy)-6-methoxyquinolin-7-yl)oxy)piperidin-1-yl)-2-oxoethyl acetate], the IC50 came out at 590 ± 45 nM in the data set on COLO 205 cells (Homo sapiens, COLO 205); 4800 ± 440 nM in the data set on HCT-116 cells; 6900 ± 470 nM in the data set with HT-29 cells (setting [2]); 180 nM on HGFR; 110 nM on MST1R.
For `COc1cc2c(Oc3ccc(NC(=O)NN4C(=O)CSC4c4c(F)cccc4F)cc3F)ccnc2cc1OC1CCN(C(=O)CO)CC1` (centres unmarked) [Compound 10h, 1–(2-(2,6-Difluorophenyl)-4-oxothiazolidin-3-yl)-3–(3-fluoro-4-((7-((1–(2-hydroxyacetyl)piperidin-4-yl)oxy)-6-methoxyquinolin-4-yl)oxy)phenyl)urea], the IC50 is greater than 10000 nM in data set [1]; 850 ± 73 nM in the data set on COLO 205 cells (Homo sapiens, COLO 205); 6500 ± 430 nM in the data set with HT-29 cells (setting [2]); 220 nM at HGFR; 160 nM on MST1R.
`COc1cc2c(Nc3ccc(NC(=O)NN4C(=O)CSC4c4c(F)cccc4F)cc3F)ccnc2cc1OC1CCN(CC(N)=O)CC1` (centres unmarked) [Compound 10i, 2–(4-((4-((4–(3-(2–(2,6-Difluorophenyl)-4-oxothiazolidin-3-yl)ureido)-2-fluorophenyl)amino)-6-methoxyquinolin-7-yl)oxy)piperidin-1-yl)acetamide]: the IC50 in the data set with HCT-116 cells and with HT-29 cells (setting [2]) was greater than 10000 nM in each case.
Regarding `CNC(=O)c1c(C)oc2cc(Oc3ncnc4cc(OC)c(OC)cc34)ccc12` [Fruquintinib, reference compound], the IC50 with COLO 205 cells (Homo sapiens, COLO 205) is greater than 10000 nM; with HCT-116 cells, 2200 ± 170 nM; in the data set on HT-29 cells (setting [2]), 1570 nM.
As for `Cn1cc(-c2cnc3ccc4ccc(CS(=O)(=O)NCc5ccccn5)cc4c(=O)c3c2)cn1` [MK-8033, 1-[3-(1-Methyl-1H-pyrazol-4-yl)-5-oxo-5H-benzo[4,5]cyclohepta[1,2-b]pyridin-7-yl]-N-(pyridin-2-ylmethyl)methanesulfonamide], the concentration for half-maximal inhibition (IC50) in the data set on Ron (MST1R) was 7 nM.
With `CNC(=O)c1cc(Oc2ccc(NC(=O)Nc3ccc(Cl)c(C(F)(F)F)c3)c(F)c2)ccn1` [Regorafenib, reference compound], the IC50 in the data set on COLO 205 cells (Homo sapiens, COLO 205) was greater than 10000 nM; with HCT-116 cells it was 8200 ± 750 nM; in the data set on HT-29 cells (setting [2]), 8490 nM.
